Test system: influenza A and B viruses
Assay: Inhibitory activity against virus (general statement)
Assay type: cell-based
Conditions: statement in words

C[C@H]1CC[C@H]2C(C)(C)[C@@H](O)CC[C@]23Oc2c(c(O)cc4c2CNC4=O)C[C@]13C [SQ-02-S5, (6a R, 7S, 9a S, 11 S, 13a S)-2,3,6,6a,7,8,9,9a,10,11,12,13-dodecahydro-5, 11-dihydroxy-6a, 7,10,10-tetramethyl-3-oxo-1H-benzo[8,8a][1]benzopyrano[2,3-e]isoindole]
inhibitory activity against virus: strong inhibitory activity against virus

Source: patent US6143732A, “Sesquiterpene derivatives” (priority 1997, dated 2000)
